The text below walks through data of publication PMC10473604 (bioRxiv, 2023).

The assay concerns HLA-A2. The assay can be described thus: HLA-I binding assay with biotin-tagged HLA-A2 monomers. Conditions: in-silico predicted HLA-A2 binders not listed in Fig. 1G. Further details: species or system human.

On to GIIYIIYKL [CVB1–2-3–4-5–6_1502–1510], for which the “HLA-A2 binding in vitro, in words” value is listed as “did not confirm as binders”.

As to KLPDALSQM [CVB1_150–158], the “HLA-A2 binding in vitro, in words” value is “did not confirm as binders”.

With VIASYPWPI [CVB1–2-3–5-6_2051–2059], the “HLA-A2 binding in vitro, in words” value is “did not confirm as binders”.

For the sequence VMGDALGSV [ZnT8_245–253], the “HLA-A2 binding in vitro, in words” value is recorded as “binding”.
